From patent publication US11046658B2, “Aminopyrazine derivatives as PI3K-γ inhibitors” (Incyte Corporation, priority 2018, dated 2021)
Counter-ions that a name gives are not always drawn.

Test system: Phosphorylated Ribosomal Protein S6 (RPS6) in THP-1 cells
Assay: THP-1 RPS6 ELISA Assay
Format: cell-based, Human
Settings: Homo sapiens; Table A1; THP-1 cells, 10 nM MCP-1; read-out: PI3Kγ_THP1_RPS6_ELISA IC50
Description: To measure the Phosphorylated Ribosomal Protein S6 (RPS6) in cell lysates, THP-1 cells (Human Acute Monocytic Leukemia) are purchased from ATCC (Manassas, Va.) and maintained in RPMI with 10% FBS (Gibco/Life Technologies, Carlsbad, Calif.). For the assay, THP-1 cells are serum starved overnight in RPMI, then plated in RPMI (2×10^5 cells/well in 90 μL) into 96-well flat-bottom tissue culture treated plates (Corning, Corning, N.Y.), in the presence or absence of a concentration range of test compounds. Covered plates are incubated for 2 hours at 37° C., 5% CO2 then treated with or without 10 nM MCP-1(MYBioSource, San Diego, Calif.) for 15 minutes at 37° C., 5% CO2. Plates are centrifuged at 1600 RPM and supernatants are removed. Cells are lysed in Lysis Buffer (Cell Signaling, Danvers, Mass.) with Protease Inhibitor (Calbiochem/EMD, Germany), PMSF (Sigma, St Louis Mo.), HALTS (Thermo Fisher, Rockford, Ill.) for 30 min on wet ice. Cell lysates are frozen at −80 OC before testing. The lysates are tested in the Human/Mouse/Rat Phospho-RPS6 ELISA (R&D Systems, Inc. Minn, Minn.). The plate is measured using a microplate reader (SpectraMax M5—Molecular Devices, LLC Sunnyvale, Calif.) set to 450 nm with a wavelength correction of 540. IC50 determination is performed by fitting the curve of inhibitor percent inhibition versus the log of the inhibitor concentration using the GraphPad Prism 5.0 software.

Row | IC50 [µM] | SMILES
1 | < 0.1 | Cc1ccc(C(O)(C(N)=O)C(F)F)cc1-c1cnc(N)c(C(=O)NC2CCOCC2)n1 (stereo not shown) [Example 36, 3-amino-6-(5-(1-amino-3,3-difluoro-2-hydroxy-1-oxopropan-2-yl)-2-methylphenyl)-N-(tetrahydro-2H-pyran-4-yl)pyrazine-2-carboxamide]
2 | < 0.1 | Cc1ccc(C(O)(C(N)=O)C(F)(F)F)cc1-c1cnc(N)c(C(=O)NCC(O)C(F)(F)F)n1 (single isomer, unassigned) [Example 43A, 3-amino-6-(5-(3-amino-1,1,1-trifluoro-2-hydroxy-3-oxopropan-2-yl)-2-methylphenyl)-N-(3,3,3-trifluoro-2-hydroxypropyl)pyrazine-2-carboxamide]
3 | < 0.1 | Cc1ccc(C(O)(C(N)=O)C(F)F)cc1-c1cnc(N)c(C(=O)NC(C)(C)CO)n1 (stereo not shown) [Example 35, 3-amino-6-(5-(1-amino-3,3-difluoro-2-hydroxy-1-oxopropan-2-yl)-2-methylphenyl)-N-(1-hydroxy-2-methylpropan-2-yl)pyrazine-2-carboxamide]
4 | < 0.1 | CCNC(=O)c1nc(-c2cc(C(O)(C(N)=O)C(F)F)ccc2C)cnc1N (stereo not shown) [Example 32, 3-amino-6-(5-(1-amino-3,3-difluoro-2-hydroxy-1-oxopropan-2-yl)-2-methylphenyl)-N-ethylpyrazine-2-carboxamide]
5 | < 0.1 | Cc1ccc(C(O)(C(N)=O)C(F)F)cc1-c1cnc(N)c(C(=O)NC2CCC(F)(F)CC2)n1 (stereo not shown) [Example 34, 3-amino-6-(5-(1-amino-3,3-difluoro-2-hydroxy-1-oxopropan-2-yl)-2-methylphenyl)-N-(4,4-difluorocyclohexyl)pyrazine-2-carboxamide]
6 | < 0.1 | Cc1ccc(C(O)(C(N)=O)C(F)(F)F)cc1-c1cnc(N)c(C(=O)NCC(F)(F)F)n1 (stereo not shown) [Example 38, 3-Amino-6-(5-(3-amino-1,1,1-trifluoro-2-hydroxy-3-oxopropan-2-yl)-2-methylphenyl)-N-(2,2,2-trifluoroethyl)pyrazine-2-carboxamide trifluoroacetate]

Second part, the molecule before the results:

Row | SMILES | IC50 [µM]
7 | CCNC(=O)c1nc(-c2cc(C(O)(C(N)=O)C(F)(F)F)ccc2C)cnc1N (stereo not shown) [Example 7, 3-Amino-6-(5-(3-amino-1,1,1-trifluoro-2-hydroxy-3-oxopropan-2-yl)-2-methylphenyl)-N-ethylpyrazine-2-carboxamide trifluoroacetate] | < 0.1
8 | Cc1ccc(C(O)(C(N)=O)C(F)(F)F)cc1-c1cnc(N)c(C(=O)NC2CCOCC2)n1 (stereo not shown) [Example 2, 3-amino-6-(5-(3-amino-1,1,1-trifluoro-2-hydroxy-3-oxopropan-2-yl)-2-methylphenyl)-N-(tetrahydro-2H-pyran-4-yl)pyrazine-2-carboxamide trifluoroacetate] | < 0.1
9 | Cc1ccc(C(O)(C(N)=O)C(F)(F)F)cc1-c1cnc(N)c(C(=O)NC23CCC(C#N)(CC2)CC3)n1 (stereo not shown) [Example 25, 3-amino-6-(5-(3-amino-1,1,1-trifluoro-2-hydroxy-3-oxopropan-2-yl)-2-methylphenyl)-N-(4-cyanobicyclo[2.2.2]octan-1-yl)pyrazine-2-carboxamide trifluoroacetate] | < 0.1
10 | Cc1ccc(C(O)(CNC(=O)CF)C(F)(F)F)cc1-c1cnc(N)c(C(=O)NC(C)C)n1 (stereo not shown) [Example 40, 3-Amino-N-isopropyl-6-(2-methyl-5-(1,1,1,-trifluoro-3-(2-fluoroacetamido)-2-hydroxypropan-2-yl)phenyl)pyrazine-2-carboxamide trifluoroacetate] | < 0.5
11 | Cc1ccc(C(O)(C(N)=O)C(F)(F)F)cc1-c1cnc(N)c(C(=O)N2CCC2(C)C)n1 (stereo not shown) [Example 27, 2-(3-(5-amino-6-(2,2-dimethylazetidine-1-carbonyl)pyrazin-2-yl)-4-methylphenyl)-3,3,3-trifluoro-2-hydroxypropanamide] | < 0.1
12 | Cc1ccc(C(O)(C(N)=O)C(F)(F)F)cc1-c1cnc(N)c(C(=O)N[C@H]2CCCOC2)n1 (stereo partly drawn) [Example 10, 3-amino-6-(5-(3-amino-1,1,1-trifluoro-2-hydroxy-3-oxopropan-2-yl)-2-methylphenyl)-N-((S)-tetrahydro-2H-pyran-3-yl)pyrazine-2-carboxamide trifluoroacetate] | < 0.1
13 | Cc1ccc(C(O)(C(N)=O)C(F)(F)F)cc1-c1cnc(N)c(C(=O)N[C@@H](C)CO)n1 (stereo partly drawn) [Example 12, 3-amino-6-(5-(3-amino-1,1,1-trifluoro-2-hydroxy-3-oxopropan-2-yl)-2-methylphenyl)-N-((S)-1-hydroxypropan-2-yl)pyrazine-2-carboxamide] | < 0.1
14 | Cc1ccc(C(O)(C(N)=O)C(F)(F)F)cc1-c1cnc(N)c(C(=O)N[C@H]2CCOC2)n1 (stereo partly drawn) [Example 11, 3-amino-6-(5-(3-amino-1,1,1-trifluoro-2-hydroxy-3-oxopropan-2-yl)-2-methylphenyl)-N-((S)-tetrahydrofuran-3-yl)pyrazine-2-carboxamide trifluoroacetate] | < 0.1

Same assay, conditions: Homo sapiens; Table A2; THP-1 cells, 10 nM MCP-1; read-out: PI3Kγ_THP1_RPS6_ELISA IC50

Row | IC50 [µM] | SMILES
15 | < 0.1 | Cc1ccc(C(O)(C(N)=O)C(F)(F)F)cc1-c1cnc(N)c(C#Cc2ccc(C#N)cc2)n1 (stereo not shown) [Example 58, 2-(3-(5-amino-6-((4-cyanophenyl)ethynyl)pyrazin-2-yl)-4-methylphenyl)-3,3,3-trifluoro-2-hydroxypropanamide]
16 | < 0.1 | Cc1ccc(C(O)(C(N)=O)C(F)(F)F)cc1-c1cnc(N)c(C#CC2(O)CCN(C)C2=O)n1 (stereo not shown) [Example 65, 2-(3-(5-amino-6-((3-hydroxy-1-methyl-2-oxopyrrolidin-3-yl)ethynyl)pyrazin-2-yl)-4-methylphenyl)-3,3,3-trifluoro-2-]
17 | < 0.1 | Cc1ccc(C(O)(C(N)=O)C(F)(F)F)cc1-c1cnc(N)c(C#Cc2cnn(C)c2)n1 (stereo not shown) [Example 54, 2-(3-(5-amino-6-((1-methyl-1H-pyrazol-4-yl)ethynyl)pyrazin-2-yl)-4-methylphenyl)-3,3,3-trifluoro-2-hydroxypropanamide]
18 | < 0.1 | Cc1ccc(C(O)(C(N)=O)C(F)(F)F)cc1-c1cnc(N)c(C#CCC(C)O)n1 (stereo not shown) [Example 51, 2-(3-(5-amino-6-(4-hydroxypent-1-ynyl)pyrazin-2-yl)-4-methylphenyl)-3,3,3-trifluoro-2-hydroxypropanamide]

Same assay, conditions: Homo sapiens; Table A3; THP-1 cells, 10 nM MCP-1; read-out: PI3Kγ_THP1_RPS6_ELISA IC50

Row | SMILES | IC50 [µM]
19 | Cc1ccc(C(O)(C(N)=O)C(F)(F)F)cc1-c1cnc(N)c(-c2ccc(C(F)(F)F)nc2)n1 (stereo not shown) [Example 83, 2-(3-(5-amino-6-(6-(trifluoromethyl)pyridin-3-yl)pyrazin-2-yl)-4-methylphenyl)-3,3,3-trifluoro-2-hydroxypropanamide bistrifluoroacetate] | < 0.5
20 | CNC(=O)c1ccc(-c2nc(-c3cc(C(O)(C(N)=O)C(F)(F)F)ccc3C)cnc2N)cc1 (stereo not shown) [Example 89, 4-(3-amino-6-(5-(3-amino-1,1,1-trifluoro-2-hydroxy-3-oxopropan-2-yl)-2-methylphenyl)pyrazin-2-yl)-N-methylbenzamide trifluoroacetate] | < 0.5
21 | Cc1ccc(-c2nc(-c3cc(C(O)(C(N)=O)C(F)(F)F)ccc3C)cnc2N)cn1 (stereo not shown) [Example 82, 2-(3-(5-amino-6-(6-methylpyridin-3-yl)pyrazin-2-yl)-4-methylphenyl)-3,3,3-trifluoro-2-hydroxypropanamide bistrifluoroacetate] | < 0.5

Same assay, conditions: Homo sapiens; Table A4; THP-1 cells, 10 nM MCP-1; cells given with + symbol; read-out: PI3Kγ_THP1_RPS6_ELISA IC50

Row | IC50 [µM] | SMILES
22 | < 0.1 | Cc1ccc(C(O)(C(N)=O)C(F)(F)F)cc1-c1cnc(N)c(N2CCN3C(=O)CCC3C2)n1 (stereo not shown) [Example 126, 2-(3-(5-amino-6-(6-oxohexahydropyrrolo[1,2-a]pyrazin-2(1H)-yl)pyrazin-2-yl)-4-methylphenyl)-3,3,3-trifluoro-2-hydroxypropanamide trifluoroacetate]
